The results in this text go back to PubChem BioAssay (NCI).

What all share (assay): growth of human tumour cells (NCI), 48 h
For experiment [1], the system named is NCI-H522 lung.
Experiment [2] has as its system CAKI-1 renal.
Experiment [3] concerns HCT-15 colon.
The test system of experiment [4] is SF-295 CNS.
The test system of experiment [5] is M14 melanoma.
Experiment [6] deals with HCC-2998 colon.
The test system of experiment [7] is A498 renal.
Experiment [8] relates to RXF 393 renal.
For experiment [9], the system named is K-562 leukemia.

The structures appear in SMILES notation.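 Test compounds were applied to cells in 96-well plates for 48 hours at 5 doses. GI50: concentration for 50% inhibition of growth. The concentration for full growth arrest is given as TGI.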

For `COC(=O)C1=C(O)C(O)=C(C(=O)OC)C1`, the TGI in experiment [1], in experiment [2], in experiment [3], in [4], in experiment [5] and in [6] was over 100 µM throughout. The TGI in [7], in [8] and in [9] was over 100 µM each time.

`COc1ccc2ccc([Se]c3ccc4ccc(OC)cc4c3)cc2c1`: the TGI in experiment [1], in [2], in [3], in experiment [4], in experiment [5] and in [6] was over 100 µM in each case. For the same molecule, the TGI in experiment [7], in [8] and in experiment [9] was over 100 µM in each case.

As to `CC(C)(O)C1OCC(C2CCC3(C)C4=CCC5C(C)(C)C(O)CCC5(C)C4CCC23C)CC1O` (configuration not stated), the TGI was 23.6 µM in experiment [1]; 29.4 µM in experiment [2]; 28 µM in [3]; 26.8 µM in experiment [4]; over 100 µM in experiment [5]; 30.1 µM in [6]. Further, the TGI in experiment [7] was determined as 30.4 µM; in experiment [9], 17.3 µM.

Turning to `O=C([CH-]C(=O)c1ccccc1)c1ccccc1.O=C([CH-]C(=O)c1ccccc1)c1ccccc1.[Nd+3].[OH-].[OH3+]`, the GI50 is 1.42 µM in experiment [1]; 13.6 µM in experiment [2]; 8.5 µM in experiment [3]; 3.95 µM in experiment [4]; 13.7 µM in experiment [5]; 9.11 µM in experiment [6]. Further, the GI50 in [7] is 11 µM; in [9], 3.31 µM. Moreover, the TGI in experiment [1] was 13.3 µM; in experiment [2], 40.9 µM; in experiment [3], 34.1 µM; in experiment [4] it was 22.8 µM; in [5] it was 32.6 µM; in experiment [6] it was 26.6 µM. The TGI in experiment [7] came to 39.6 µM; in experiment [9], 19.1 µM.

Take `CC(c1cccc2ccccc12)/[N+]([O-])=C/c1ccccc1` (configuration not stated): the TGI in experiment [1], in experiment [4], in experiment [6], in [7], in experiment [8] and in experiment [9] was over 100 µM throughout.

As to `COc1cc2c(/C=C3/C(=O)Nc4ccccc43)c(Cl)n(Cc3ccccc3[N+](=O)[O-])c2cc1C`, the GI50 in [1] is 12.2 µM; in experiment [2], 6.39 µM; in experiment [3] it was 6.6 µM; in experiment [4] it was 6.9 µM; in experiment [5], 6.35 µM; in experiment [7] it was 12.4 µM. For the same molecule, in [8], the GI50 was 18.9 µM. Also, the TGI in experiment [1] was 35.3 µM; in [2], 23.3 µM; in [3], 26.7 µM; in experiment [4], 22.8 µM; in [5], 30.2 µM; in experiment [7], 32.6 µM. Moreover, the TGI in experiment [8] was 96.2 µM.

In the case of `O=c1cc2ccccc2nn1-c1ccccc1Cl`, the TGI in experiment [2], in experiment [3], in experiment [4], in experiment [5], in experiment [6] and in [7] was over 100 µM each time. Also, the TGI in experiment [9] was over 100 µM.

As to `O=c1cc(-c2ccccc2)nc2n1CCN2Cc1ccccc1`, the GI50 is 20.8 µM in experiment [1]; 29.7 µM in experiment [2]; 31.2 µM in [3]; 21.1 µM in experiment [4]; 37.9 µM in experiment [5]; 10.1 µM in experiment [7]. Moreover, the GI50 is 46.2 µM in [8] and 34.7 µM in experiment [9]. For the same molecule, the TGI is 56.1 µM in [1]; over 100 µM in experiment [2]; over 100 µM in [3]; 72.2 µM in experiment [4]; over 100 µM in experiment [5]; 34.2 µM in experiment [7]. Moreover, the TGI was over 100 µM in experiment [8] and 90.3 µM in [9].

For `CCOC(=O)C(C)c1cc(C2(C)OCCO2)c(C)o1` (configuration not stated), the TGI in experiment [3], in [4], in experiment [5], in experiment [6], in experiment [8] and in [9] was over 100 µM in each case.

On to `Nc1ccccc1C#C/C=C\C#Cc1ccc(Cl)cc1Cl`, for which the GI50 in experiment [1] is 14.7 µM; in experiment [2], 3.38 µM; in [4] it was 5.17 µM; in [5] it was 14.7 µM; in [6], 3.37 µM; in experiment [7] it was 12.6 µM. For the same molecule, the results for the GI50 in [8] and in experiment [9] were 14.3 µM and 4.84 µM, respectively. The TGI in [1] was 35.4 µM; in experiment [2], 13.5 µM; in experiment [4], 20 µM; in experiment [5], 34.4 µM; in [6], 9.58 µM; in experiment [7], 27 µM. Also, the TGI was 40.7 µM in [8] and over 100 µM in [9].
